These results are taken from patent publication US4585859A, “Analogues of morpholinyl daunorubicin and morpholinyl doxorubicin” (priority 1984, dated 1986).

SMILES strings stand for the structures. Where “and” joins values, the source holds several entries; their conditions need not be identical. Equal values may be shown once. Read-outs that look alike come from different tables or passages of the source.

Experiment [1] concerns RNA synthesis in L 1210 Cells. The experiment in a line: Inhibition of RNA synthesis in L 1210 Cells. In kind it is cell-based, mouse.
The test system of another experiment is B-16 Melanoma. Briefly: Mouse antitumor efficacy vs B-16 Melanoma (Table B).
For experiment [2], the system named is Lymphocyte Leukemia P-388. The experiment in a line: Survival time of mice inoculated i.p. with Lymphocyte Leukemia P-388, treated days 5, 9 and 13 (Table A). In kind it is in vivo, mouse.
Experiment [3] has as its system DNA synthesis in L 1210 Cells. Briefly: Inhibition of DNA synthesis in L 1210 Cells. In kind it is cell-based, mouse.
For experiment [4] the following is noted: prior art; cited from earlier work.
The subject of another experiment is DNA. The note with it: cited from earlier work.
For the next experiment, the system named is mouse leukemia P388. Particulars: cited from earlier work; for activity in mouse leukemia P388 screen / dose requirement in P388 screen: 3-dose schedule q4d 5,9,13.
The test system of another experiment is P-388 leukemia. Briefly: Mouse antitumor efficacy vs P-388 leukemia (Table B).
The mark [5] stands for this setting: Mus musculus, L1210, read-out: Leukemia L-1210 Cells Inhibition of Synthesis ED50, RNA.
[6] abbreviates: Mus musculus, L1210, read-out: Leukemia L-1210 Cells Inhibition of Synthesis ED50, DNA.
Where [7] appears, read: Mus musculus, L1210, L-1210 cells, RNA synthesis, read-out: Leukemia L-1210 Cells Inhibition of Synthesis ED50, RNA.
[8] abbreviates: P-388 in mice, q4d 5,9,13, at optimum dose.
Setting [9] is: Mus musculus, L1210, L-1210 cells, DNA synthesis, read-out: Leukemia L-1210 Cells Inhibition of Synthesis ED50, DNA.

Regarding `COc1cccc2c1C(=O)c1c(O)c3c(c(O)c1C2=O)C[C@@](O)(C(C)=O)C[C@@H]3O[C@H]1C[C@H](N)[C@H](O)[C@H](C)O1` [daunorubicin], the IC50 in experiment [1] (setting [5]) was 330 nM; in experiment [3] (setting [6]) it was 660 nM. The “Mouse Antitumor Efficacy at Optimum Dose, % T/C” value (shortened to “Mouse Antitumor Efficacy … % T/C”) in the experiment with B-16 Melanoma (mouse, in vivo, ip) came to 195%. The “Survival Time, % T/C” value in experiment [2] (mouse, in vivo) is 130%.
Take `COc1cccc2c1C(=N)c1c(O)c3c(c(O)c1C2=O)C[C@@](O)(C(=O)CO)C[C@@H]3O[C@H]1C[C@H](N)[C@H](O)[C@H](C)O1` [5-iminodoxorubicin]: the “antitumor activity, side effects and dosage” value in experiment [4] is given as “showed enhanced activity but required higher dosages”.
With `COc1cccc2c1C(=O)c1c(O)c3c(c(O)c1C2=O)C[C@@](O)(C(C)=O)C[C@@H]3O[C@H]1C[C@H](N(Cc2ccccc2)Cc2ccccc2)[C@H](O)[C@H](C)O1` [N,N-dibenzyldaunorubicin], the “interaction with DNA in vitro” value with DNA is “fail to interact with DNA in vitro”. In addition, in the experiment on mouse leukemia P388, the “activity in mouse leukemia P388 screen” value is “most active new analogues so far” and the “dose requirement in P388 screen” value is on record as “required significantly higher doses”.
For `COc1cccc2c1C(=O)c1c(O)c3c(c(O)c1C2=O)C[C@@](O)(C(C)O)C[C@@H]3O[C@H]1C[C@H](N2CCOCC2)[C@H](O)[C@H](C)O1` (some centres unmarked) [NSC 327450, 3'-deamino-3'-(4"-morpholinyl)-13-dihydrodaunorubicin], the IC50 in experiment [1] (setting [7]) worked out at 670 nM; in experiment [3] (setting [9]) it was 2200 nM. For the same molecule, the “Mouse Antitumor Efficacy … % T/C” value in the experiment with B-16 Melanoma (section "ip B16", d 1, ip) was 121%. In experiment [2] (setting [8]), the “Survival Time, % T/C” value turned out to be 132%.
As for `COc1cccc2c1C(=N)c1c(O)c3c(c(O)c1C2=O)C[C@@](O)(C(O)CO)C[C@@H]3O[C@H]1C[C@H](N2CCOCC2)[C@H](O)[C@H](C)O1` (some centres unmarked) [NSC 355465, 3'-deamino-3'-(4"-morpholinyl)-5-imino-13-dihydrodoxorubicin], the figures for the IC50 in experiment [1] (setting [5]) and in experiment [3] (setting [6]) were 24000 nM and above 100000 nM, respectively. Further, in experiment [2] (setting [8]), the “Survival Time, % T/C” value was found to be 161%.
For `COc1cccc2c1C(=O)c1c(O)c3c(c(O)c1C2=O)C[C@@](O)(C(=O)CO)C[C@@H]3O[C@H]1C[C@H](N2CCOCC2)[C@H](O)[C@H](C)O1` [NSC 354646, 3'-deamino-3'-(4"-morpholinyl)doxorubicin], the “Mouse Antitumor Efficacy … % T/C” value was 182% with P-388 leukemia (ip P388, d 1, ip); above 143% in the experiment on P-388 leukemia (ip P388, d 1, iv); 224% in the experiment on P-388 leukemia (ip P388, q4d 1,5,9, ip); 175% in the experiment on P-388 leukemia (ip P388, q4d 1,5,9, po); 209% with P-388 leukemia (ip P388, qd 1-9, ip). In addition, the “Optimum Dose” value with P-388 leukemia (ip P388, d 1, ip) came out at 0.05 mg/kg; with P-388 leukemia (ip P388, d 1, iv) it was 0.062 mg/kg; with P-388 leukemia (ip P388, q4d 1,5,9, ip), 0.05 mg/kg; in the experiment with P-388 leukemia (ip P388, q4d 1,5,9, po), 0.05 mg/kg; in the experiment on P-388 leukemia (ip P388, qd 1-9, ip) it was 0.0125 mg/kg.
`COc1cccc2c1C(=O)c1c(O)c3c(c(O)c1C2=O)C[C@@](O)(C(C)=O)C[C@@H]3O[C@H]1C[C@H](N2CCSCC2)[C@H](O)[C@H](C)O1`: the “T/C vs mouse leukemia P388” value in experiment [2] (at 50 mg/kg (thiomorpholino) or 8 mg/kg (doxorubicin)) is on record as 169%. In addition, the “dose required vs mouse leukemia P388” value in experiment [2] (dose for the T/C quoted) was found to be 50 mg/kg.
Take `CCCCC(=O)OCC(=O)[C@]1(O)Cc2c(O)c3c(c(O)c2[C@@H](O[C@H]2C[C@H](NC(=O)C(F)(F)F)[C@H](O)[C@H](C)O2)C1)C(=O)c1c(OC)cccc1C3=O` [AD32]: the “interaction with DNA in vitro” value in the experiment on DNA is recorded as “fail to interact with DNA in vitro”. Moreover, in the experiment on mouse leukemia P388, the “activity in mouse leukemia P388 screen” value is “most active new analogues so far” and the “dose requirement in P388 screen” value is on record as “required significantly higher doses”.
For the molecule `COc1cccc2c1C(=O)c1c(O)c3c(c(O)c1C2=O)C[C@@](O)(C(C)=O)C[C@@H]3O[C@H]1C[C@H](N2CCC(OC)CC2)[C@H](O)[C@H](C)O1` [NSC 334353, 3-deamino-3'-(4"-methoxy-1"-piperidinyl)-daunorubicin], the IC50 was determined as 120 nM in experiment [1] (setting [5]) and 630 nM in experiment [3] (setting [6]). In experiment [2] (setting [8]), the “Survival Time, % T/C” value was determined as 199%.
Take `COc1cccc2c1C(=O)c1c(O)c3c(c(O)c1C2=O)C[C@@](O)(C(O)CO)C[C@@H]3O[C@H]1C[C@H](N2CCOCC2C#N)[C@H](O)[C@H](C)O1` (some centres unmarked) [NSC 360291, 3'-deamino-3'-(3"-cyano-4"-morpholinyl)-13-dihydrodoxorubicin]: in the experiment with B-16 Melanoma (mouse, in vivo, ip), the “Mouse Antitumor Efficacy … % T/C” value is 149% and 121%. Also, in experiment [2] (setting [8]), the “Survival Time, % T/C” value amounted to 150%. For the same molecule, in the experiment with P-388 leukemia (mouse, in vivo, ip), the “Mouse Antitumor Efficacy … % T/C” value is 183% and 267%; the “Optimum Dose” value is 0.05 mg/kg and 0.025 mg/kg.
As for `COc1cccc2c1C(=O)c1c(O)c3c(c(O)c1C2=O)C[C@@](O)(C(=O)CO)C[C@@H]3O[C@H]1C[C@H](N2CCOCC2C#N)[C@H](O)[C@H](C)O1` (some centres unmarked) [NSC 357704, 3'-deamino-3'-(3"-cyano-4"-morpholinyl)doxorubicin], the “Mouse Antitumor Efficacy … % T/C” value in the experiment with B-16 Melanoma (mouse, in vivo, ip) was > 138% and 123%; in the experiment on P-388 leukemia (mouse, in vivo), 152% and > 158%; with P-388 leukemia (mouse, in vivo, ip) it was 262% and > 360%. The “Optimum Dose” value was 0.05 mg/kg and 0.1 mg/kg in the experiment on P-388 leukemia (mouse, in vivo); 0.0125 mg/kg and 0.0063 mg/kg with P-388 leukemia (mouse, in vivo, ip).
As to `COc1cccc2c1C(=O)c1c(O)c3c(c(O)c1C2=O)C[C@@](O)(C(=O)CO)C[C@@H]3O[C@H]1C[C@H](N2C(=O)COCC2C#N)[C@H](O)[C@H](C)O1` (some centres unmarked) [3'-deamino-3'-(3"-cyano-5"-oxo-4"-morpholinyl)-doxorubicin], the IC50 in experiment [1] (l1210 cells, read-out: Leukemia L-1210 Cells Inhibition of Synthesis ED50, RNA) stood at 30 nM; in experiment [3] (l1210 cells, read-out: Leukemia L-1210 Cells Inhibition of Synthesis ED50, DNA) it was 50 nM.
As to `COc1cccc2c1C(=O)c1c(O)c3c(c(O)c1C2=O)C[C@@](O)(C(C)O)C[C@@H]3O[C@H]1C[C@H](N2CCC(OC)CC2)[C@H](O)[C@H](C)O1` (some centres unmarked) [NSC 334354, 3'-deamino-3'-(4'-methoxy-1-piperidinyl)-13-dihydrodaunorubicin], the IC50 amounted to 80 nM in experiment [1] (setting [7]) and 580 nM in experiment [3] (setting [9]). For the same molecule, in experiment [2] (setting [8]), the “Survival Time, % T/C” value was determined as 199%.
On to `COc1cccc2c1C(=N)c1c(O)c3c(c(O)c1C2=O)C[C@@](O)(C(=O)CO)C[C@@H]3O[C@H]1C[C@H](N2CCOCC2)[C@H](O)[C@H](C)O1` [NSC 355277, 3'-deamino-3'-(4"-morpholinyl)-5-iminodoxorubicin], for which, in the experiment with P-388 leukemia (ip P388, d 1, ip), the “Mouse Antitumor Efficacy … % T/C” value is above 193% and the “Optimum Dose” value came to 2 mg/kg. Further, in the experiment with P-388 leukemia (ip P388, d 1, iv), the “Mouse Antitumor Efficacy … % T/C” value is listed as 166% and the “Optimum Dose” value came out at 2.5 mg/kg.
Turning to `COc1cccc2c1C(=N)c1c(O)c3c(c(O)c1C2=O)C[C@@](O)(C(C)=O)C[C@@H]3O[C@H]1C[C@H](N)[C@H](O)[C@H](C)O1` [5-Iminodaunorubicin], the “antitumor activity, side effects and dosage” value in experiment [4] was “retained activity with reduced side effects”.
`COc1cccc2c1C(=O)c1c(O)c3c(c(O)c1C2=O)C[C@@](O)(C(C)=O)C[C@@H]3O[C@H]1C[C@H](N2CCOCC2)[C@H](O)[C@H](C)O1` [NSC 327451, 3'-deamino-3'-(4"-morpholinyl)daunorubicin]: the IC50 worked out at 100 nM in experiment [1] (setting [7]) and 760 nM in experiment [3] (setting [9]). Moreover, the “Mouse Antitumor Efficacy … % T/C” value was determined as 135% in the experiment with B-16 Melanoma (section "ip B16", d 1, ip); 155% with P-388 leukemia (ip P388, d 1, ip); 152% in the experiment on P-388 leukemia (ip P388, d 1, iv). Also, in experiment [2] (setting [8]), the “Survival Time, % T/C” value turned out to be 166%. Besides, the “active dose relative to the dose of doxorubicin” value in the experiment on mouse leukemia P388 (prior art, P388) is “one-fortieth the dose of doxorubicin”. In the experiment with mouse leukemia P388 (prior art, U.S. Pat. No. 4,301,277), the “T/C value against P388” value is 166%. The “Optimum Dose” value with P-388 leukemia (ip P388, d 1, ip) is 0.25 mg/kg; in the experiment on P-388 leukemia (ip P388, d 1, iv) it was 0.5 mg/kg.
`COc1cccc2c1C(=O)c1c(O)c3c(c(O)c1C2=O)C[C@@](O)(C(C)=O)C[C@@H]3O[C@H]1C[C@H](N2CCOCC2C#N)[C@H](O)[C@H](C)O1` (some centres unmarked) [NSC 332304, 3'-deamino-3'-(3"-cyano-4"-morpholinyl)daunorubicin]: the “inhibition of RNA vs DNA synthesis” value in experiment [1] is given as “much more inhibitory toward RNA synthesis than toward DNA synthesis”. Besides, the “Mouse Antitumor Efficacy … % T/C” value in the experiment with B-16 Melanoma (section "ip B16", d 1, ip) was determined as 138%; in the experiment with P-388 leukemia (ip P388, d 1, ip), 175%; in the experiment on P-388 leukemia (ip P388, d 1, iv), 157%. The “Survival Time, % T/C” value in experiment [2] (setting [8]) is reported as 197%. For the same molecule, the “Optimum Dose” value in the experiment on P-388 leukemia (ip P388, d 1, ip) is reported as 0.25 mg/kg; with P-388 leukemia (ip P388, d 1, iv) it was 0.5 mg/kg. Moreover, the IC50 in experiment [3] (setting [6]) turned out to be 12 nM.
Turning to `COc1cccc2c1C(=O)c1c(O)c3c(c(O)c1C2=O)C[C@@](O)(C(C)O)C[C@@H]3O[C@H]1C[C@H](N2CCOCC2C#N)[C@H](O)[C@H](C)O1` (some centres unmarked) [NSC 332305, 3'-deamino-3'-(3"-cyano-4"-morpholinyl)-13-dihydrodaunorubicin], the “inhibition of RNA vs DNA synthesis” value in experiment [1] is on record as “much more inhibitory toward RNA synthesis than toward DNA synthesis”. In the experiment with B-16 Melanoma (section "ip B16", d 1, ip), the “Mouse Antitumor Efficacy … % T/C” value is listed as 131%. The “Survival Time, % T/C” value in experiment [2] (setting [8]) came to 143%. Moreover, in experiment [3] (setting [6]), the IC50 stood at 19 nM.
